Test system: MPP1
Experiment: Immunoblot of MPP1 content in PBMN cells of elderly human research participants
Assay type: in vivo
Settings: 28 days, daily dose of 60 mg
From the text: For protein separation by SDS-PAGE (Laemmli system), the protein pellet can be dissolved in SDS-PAGE sample buffer supplemented with SDS. As an alternative, sample buffer for native gel electrophoresis can be added. According to the original protocol, the SDS-PAGE Laemmli sample buffer contains 2% SDS, 0.1 M DTT (or 5% mercaptoethanol). To improve disaggregation of aggregated proteins, the buffer can be supplemented without or with urea ranging from about 0 M-8 M, preferably about 6 M urea and incubated for about 10 min to 24 h, preferably about 90 min at room temperature. Proteins can be stored frozen (about […]) at a concentration ranging from about 0.01-100 mg/ml, preferably about 0.5 mg-1 mg/ml, for further use. It may be further desirable to dilute the solubilisate, for example, diluting the supernatant solubilisate by 1:1-1:20, preferably 1:5, in a suitable buffer as described above (preferably supplemented with protease inhibitors). Before immunoblot detection of proteins, proteins are separated. For separation of proteins, one- or two-dimensional SDS-PAGE can be applied. […]

With `O=C(C1=C(O)C(c2ccc(F)cc2)N(c2ccc3c(c2)OCO3)C1=O)C1CC1` (stereo not shown) [Compound-1F, 1-(1,3-Benzodioxol-5-yl)-4-(cyclopropanecarbonyl)-2-(4-fluorophenyl)-3-hydroxy-2H-pyrrol-5-one] the “senescence marker protein MPP1 in PBMN cells vs before treatment” value was “significant decrease”.

— patent publication US20210015793A1, “COMPOUNDS FOR TREATING CNS- AND NEURODEGENERATIVE DISEASES” (ETH ZURICH, priority 2018, published 2021)
